One compound from article PMC5218480 (PLoS ONE, 2017) can be followed below.

The test system of the test is MV-4-11 cells. The test is described as follows: Gene expression microarray analysis (Affymetrix PrimeView) and GSEA. The class given is cell-based, human. The arrangement: RFU PODN (11730768_x_at) / Fold change /veh PODN (11730768_x_at) / RFU LINC00158 (11744669_a_at) / Fold change /veh LINC00158 (11744669_a_at) / RFU DUSP10 (11751237_a_at) / Fold change /veh DUSP10 (11751237_a_at) / RFU ID3 (11757404_x_at) / Fold change /veh ID3 (11757404_x_at) / RFU PLEKHG5 (11737974_s_at) / Fold change /veh PLEKHG5 (11737974_s_at) / RFU LRRC4B (11730491_at) / Fold change /veh LRRC4B (11730491_at) / RFU GIMAP4 (11747438_a_at) / Fold change /veh GIMAP4 (11747438_a_at) / RFU KRT8 (11758183_x_at) / Fold change /veh KRT8 (11758183_x_at) / RFU CNN1 (11734310_a_at) / Fold change /veh CNN1 (11734310_a_at) / RFU VPS37D (11726825_at) / Fold change /veh VPS37D (11726825_at) / RFU C10orf10 (11716522_x_at) / Fold change /veh C10orf10 (11716522_x_at) / RFU KIR2DL2 /// KIR2DL4 /// KIR2DL5A /// KIR2DL5B /// KIR2DS1 /// KIR2DS2 /// KIR2DS3 /// KIR2DS4 /// KIR3DL3 /// KIR3DL3 /// KIR3DS1 (11738374_at) / Fold change /veh KIR2DL2 /// KIR2DL4 /// KIR2DL5A /// KIR2DL5B /// KIR2DS1 /// KIR2DS2 /// KIR2DS3 /// KIR2DS4 /// KIR3DL3 /// KIR3DL3 /// KIR3DS1 (11738374_at) / RFU C1QL1 (11718748_at) / Fold change /veh C1QL1 (11718748_at) / RFU TMPRSS4 (11747572_a_at) / Fold change /veh TMPRSS4 (11747572_a_at) / RFU HAMP (11756126_x_at) / Fold change /veh HAMP (11756126_x_at) / RFU RNFT2 (11725882_a_at) / Fold change /veh RNFT2 (11725882_a_at) / RFU NR4A2 (11747474_a_at) / Fold change /veh NR4A2 (11747474_a_at) / RFU ABCC12 (11746883_a_at) / Fold change /veh ABCC12 (11746883_a_at) / RFU TMEM136 (11760407_x_at) / Fold change /veh TMEM136 (11760407_x_at) / RFU CLDN22 /// WWC2 (11732394_at) / Fold change /veh CLDN22 /// WWC2 (11732394_at) / RFU HLA-DPB1 (11760878_x_at) / Fold change /veh HLA-DPB1 (11760878_x_at) / RFU SPINT1 (11716480_a_at) / Fold change /veh SPINT1 (11716480_a_at) / RFU GAP43 (11754022_s_at) / Fold change /veh GAP43 (11754022_s_at) / RFU A4GNT (11735810_at) / Fold change /veh A4GNT (11735810_at) / RFU PRB3 (11715151_x_at) / Fold change /veh PRB3 (11715151_x_at) / RFU TUBB4B (11761932_at) / Fold change /veh TUBB4B (11761932_at) / RFU CAPN14 (11732068_a_at) / Fold change /veh CAPN14 (11732068_a_at) / RFU TMCC2 (11721928_a_at) / Fold change /veh TMCC2 (11721928_a_at) / RFU IRGQ (11745062_a_at) / Fold change /veh IRGQ (11745062_a_at) / RFU FAM174B (11720279_a_at) / Fold change /veh FAM174B (11720279_a_at) / RFU TMPRSS4 (11748680_a_at) / Fold change /veh TMPRSS4 (11748680_a_at) / RFU FAM212B (11763350_a_at) / Fold change /veh FAM212B (11763350_a_at) / RFU PLEKHG5 (11743358_a_at) / Fold change /veh PLEKHG5 (11743358_a_at) / RFU ZSCAN30 (11745921_a_at) / Fold change /veh ZSCAN30 (11745921_a_at) / RFU CMKLR1 (11741424_a_at) / Fold change /veh CMKLR1 (11741424_a_at) / RFU LOC101060620 /// MAPK8IP1 (11723275_at) / Fold change /veh LOC101060620 /// MAPK8IP1 (11723275_at) / RFU SPTSSB (11747773_x_at) / Fold change /veh SPTSSB (11747773_x_at) / RFU PRSS12 (11739890_at) / Fold change /veh PRSS12 (11739890_at) / RFU BIN1 (11741810_x_at) / Fold change /veh BIN1 (11741810_x_at) / RFU WNT11 (11732464_a_at) / Fold change /veh WNT11 (11732464_a_at) / RFU C10orf10 (11716521_a_at) / Fold change /veh C10orf10 (11716521_a_at) / RFU C5orf56 (11738089_at) / Fold change /veh C5orf56 (11738089_at) / RFU CYB561 (11721691_x_at) / Fold change /veh CYB561 (11721691_x_at) / RFU ANKRD19P (11752326_a_at) / Fold change /veh ANKRD19P (11752326_a_at) / RFU OR2T12 /// OR2T33 /// OR2T8 (11738714_s_at) / Fold change /veh OR2T12 /// OR2T33 /// OR2T8 (11738714_s_at) / RFU VCAN (11748164_a_at) / Fold change /veh VCAN (11748164_a_at) / RFU JSRP1 (11732532_at) / Fold change /veh JSRP1 (11732532_at) / RFU KRTAP10-11 (11738290_x_at) / Fold change /veh KRTAP10-11 (11738290_x_at) / RFU MYO3A (11730013_a_at) / Fold change /veh MYO3A (11730013_a_at) / RFU EBF3 (11725865_a_at) / Fold change /veh EBF3 (11725865_a_at) / RFU CAMK2N1 (11719241_x_at) / Fold change /veh CAMK2N1 (11719241_x_at) / RFU C5orf56 (11738088_a_at) / Fold change /veh C5orf56 (11738088_a_at) / RFU OLFML3 (11715873_a_at) / Fold change /veh OLFML3 (11715873_a_at) / RFU LOC100653217 /// NTM (11731650_a_at) / Fold change /veh LOC100653217 /// NTM (11731650_a_at) / RFU MAPK11 (11762145_a_at) / Fold change /veh MAPK11 (11762145_a_at) / RFU FIZ1 (11724087_x_at) / Fold change /veh FIZ1 (11724087_x_at) / RFU OASL (11726364_x_at) / Fold change /veh OASL (11726364_x_at) / RFU SOX15 (11748057_x_at) / Fold change /veh SOX15 (11748057_x_at) / RFU CD79A (11719716_a_at) / Fold change /veh CD79A (11719716_a_at) / RFU HIST1H1D (11736915_at) / Fold change /veh HIST1H1D (11736915_at) / RFU CASKIN2 (11723855_a_at) / Fold change /veh CASKIN2 (11723855_a_at) / RFU LOC730098 (11760151_x_at) / Fold change /veh LOC730098 (11760151_x_at) / RFU OR4N2 (11742367_at) / Fold change /veh OR4N2 (11742367_at) / RFU PRRT2 (11749266_a_at) / Fold change /veh PRRT2 (11749266_a_at) / RFU SNX32 (11753110_a_at) / Fold change /veh SNX32 (11753110_a_at) / RFU CDHR5 (11726645_a_at) / Fold change /veh CDHR5 (11726645_a_at) / RFU RCAN1 (11760418_a_at) / Fold change /veh RCAN1 (11760418_a_at) / RFU FAM167A (11723789_a_at) / Fold change /veh FAM167A (11723789_a_at) / RFU FAM26E (11764081_at) / Fold change /veh FAM26E (11764081_at) / RFU ISYNA1 (11749810_s_at) / Fold change /veh ISYNA1 (11749810_s_at) / RFU ACY1 (11761880_at) / Fold change /veh ACY1 (11761880_at) / RFU 11764098_at / Fold change /veh 11764098_at / RFU SAMD14 (11745864_x_at) / Fold change /veh SAMD14 (11745864_x_at) / RFU NPB (11741838_a_at) / Fold change /veh NPB (11741838_a_at) / RFU TMPRSS6 (11731388_a_at) / Fold change /veh TMPRSS6 (11731388_a_at) / RFU KRTAP10-2 (11738614_at) / Fold change /veh KRTAP10-2 (11738614_at) / RFU ARHGAP8 /// PRR5-ARHGAP8 (11727945_x_at) / Fold change /veh ARHGAP8 /// PRR5-ARHGAP8 (11727945_x_at) / RFU KRTAP5-7 /// NADSYN1 (11734609_at) / Fold change /veh KRTAP5-7 /// NADSYN1 (11734609_at) / RFU RASL12 (11751679_a_at) / Fold change /veh RASL12 (11751679_a_at) / RFU CDKN2B (11736163_a_at) / Fold change /veh CDKN2B (11736163_a_at) / RFU PRF1 (11729649_at) / Fold change /veh PRF1 (11729649_at) / RFU, ZNF638 /// ZNF638-IT1 / Fold change vs veh, ZNF638 /// ZNF638-IT1 / RFU, PANK3 / Fold change vs veh, PANK3 / RFU, SH3YL1 / Fold change vs veh, SH3YL1 / RFU, ZEB2 / Fold change vs veh, ZEB2 / RFU, NRIP1 / Fold change vs veh, NRIP1 / RFU, PTTG1IP / Fold change vs veh, PTTG1IP / RFU, CAPN2 / Fold change vs veh, CAPN2 / RFU, MED14 / Fold change vs veh, MED14 / RFU, SNORA58 / Fold change vs veh, SNORA58 / RFU, C1orf63 / Fold change vs veh, C1orf63 / RFU, LRRFIP1 / Fold change vs veh, LRRFIP1 / RFU, NDUFAF7 / Fold change vs veh, NDUFAF7 / RFU, SLC12A2 / Fold change vs veh, SLC12A2 / RFU, IBTK / Fold change vs veh, IBTK / RFU, ESF1 / Fold change vs veh, ESF1 / Fold change vs veh, TMEM50B / RFU, TAOK1 / Fold change vs veh, TAOK1 / RFU, ACBD3 / Fold change vs veh, ACBD3 / RFU, TMA16 / Fold change vs veh, TMA16 / RFU, RWDD3 / Fold change vs veh, RWDD3 / RFU, BCAT1 / Fold change vs veh, BCAT1 / RFU, EDEM3 / Fold change vs veh, EDEM3 / RFU, TMEM33 / Fold change vs veh, TMEM33 / RFU, WDR75 / Fold change vs veh, WDR75 / RFU, AHCTF1 / Fold change vs veh, AHCTF1 / RFU, TFRC / Fold change vs veh, TFRC / RFU, ZDHHC17 / Fold change vs veh, ZDHHC17 / RFU, NOM1 / Fold change vs veh, NOM1 / RFU, ARL8B / Fold change vs veh, ARL8B / RFU, ZBTB11 / Fold change vs veh, ZBTB11 / RFU, TAMM41 / Fold change vs veh, TAMM41 / RFU, KIAA1704 /// LOC100996395 / Fold change vs veh, KIAA1704 /// LOC100996395 / RFU, ING1 / Fold change vs veh, ING1 / RFU, TRMT61B / Fold change vs veh, TRMT61B / RFU, FUBP3 / Fold change vs veh, FUBP3 / RFU, TP53 / Fold change vs veh, TP53 / RFU, TNKS2 / Fold change vs veh, TNKS2 / RFU, ZFP14 / Fold change vs veh, ZFP14 / RFU, ACTR2 / Fold change vs veh, ACTR2 / RFU, PPP3R1 / Fold change vs veh, PPP3R1 / RFU, PIK3R1 / Fold change vs veh, PIK3R1 / RFU, HNRNPA1 / Fold change vs veh, HNRNPA1 / RFU, RNF170 / Fold change vs veh, RNF170 / RFU, ZNF28 / Fold change vs veh, ZNF28 / RFU, RNGTT / Fold change vs veh, RNGTT / RFU, OGT / Fold change vs veh, OGT / RFU, BRD1 / Fold change vs veh, BRD1 / RFU, MARS / Fold change vs veh, MARS / RFU, ZNF655 / Fold change vs veh, ZNF655 / RFU, FAHD1 / Fold change vs veh, FAHD1 / RFU, BDP1 / Fold change vs veh, BDP1 / RFU, LRRCC1 / Fold change vs veh, LRRCC1 / RFU, ARID1A / Fold change vs veh, ARID1A / RFU, ZNF146 / Fold change vs veh, ZNF146 / RFU, ZNF330 / Fold change vs veh, ZNF330 / RFU, GPN3 / Fold change vs veh, GPN3 / RFU, C9orf123 / Fold change vs veh, C9orf123 / RFU, N4BP2L2 / Fold change vs veh, N4BP2L2 / RFU, ARFIP1 / Fold change vs veh, ARFIP1 / RFU, FAM179B / Fold change vs veh, FAM179B / RFU, BCL10 / Fold change vs veh, BCL10 / RFU, UHRF1BP1L / Fold change vs veh, UHRF1BP1L / RFU, BET1 / Fold change vs veh, BET1 / RFU, CNOT2 / Fold change vs veh, CNOT2 / RFU, ZNF268 / Fold change vs veh, ZNF268 / Fold change vs veh, ZNF507 / RFU, DGCR2 / Fold change vs veh, DGCR2 / RFU, WDSUB1 / Fold change vs veh, WDSUB1 / Fold change vs veh, HSP90B1 /// MIR3652 / RFU, ADSS / Fold change vs veh, ADSS / RFU, GK / Fold change vs veh, GK / RFU, ZNF148 / Fold change vs veh, ZNF148 / RFU, TAF9 / Fold change vs veh, TAF9 / RFU, SLC1A5 / Fold change vs veh, SLC1A5 / RFU, SLMO2 / Fold change vs veh, SLMO2 / RFU, ABCC4 / Fold change vs veh, ABCC4 / RFU, LOC101060439 /// RAP1B / Fold change vs veh, LOC101060439 /// RAP1B / RFU, RFX7 / Fold change vs veh, RFX7 / RFU, GTPBP10 / Fold change vs veh, GTPBP10 / RFU, CNEP1R1 / Fold change vs veh, CNEP1R1 / RFU, BIVM-ERCC5 /// ERCC5 / Fold change vs veh, BIVM-ERCC5 /// ERCC5 / RFU, ILF3 / Fold change vs veh, ILF3 / RFU 11762660_at / Fold change /veh 11762660_at / RFU VCAN (11757783_s_at) / Fold change /veh VCAN (11757783_s_at) / RFU DDX43 (11728927_at) / Fold change /veh DDX43 (11728927_at) / RFU KRT8 (11758188_x_at) / Fold change /veh KRT8 (11758188_x_at) / RFU NKD1 (11759106_at) / Fold change /veh NKD1 (11759106_at) / RFU SRD5A1 (11742802_a_at) / Fold change /veh SRD5A1 (11742802_a_at) / RFU TPSAB1 /// TPSB2 (11721975_s_at) / Fold change /veh TPSAB1 /// TPSB2 (11721975_s_at) / RFU GSTM3 (11746129_a_at) / Fold change /veh GSTM3 (11746129_a_at) / RFU IL23R (11737362_x_at) / Fold change /veh IL23R (11737362_x_at) / RFU TMEM51 (11727254_a_at) / Fold change /veh TMEM51 (11727254_a_at) / RFU PIWIL2 (11732686_x_at) / Fold change /veh PIWIL2 (11732686_x_at) / RFU ORM1 (11744905_x_at) / Fold change /veh ORM1 (11744905_x_at) / RFU CCDC152 (11743942_at) / Fold change /veh CCDC152 (11743942_at) / RFU ECM1 (11717891_a_at) / Fold change /veh ECM1 (11717891_a_at) / RFU IL23R (11748794_a_at) / Fold change /veh IL23R (11748794_a_at) / RFU TNFAIP8L3 (11732012_x_at) / Fold change /veh TNFAIP8L3 (11732012_x_at) / RFU MBOAT4 (11741988_at) / Fold change /veh MBOAT4 (11741988_at) / RFU 11764193_at / Fold change /veh 11764193_at / RFU TMEM53 (11763286_at) / Fold change /veh TMEM53 (11763286_at) / RFU MAGEB2 (11727129_at) / Fold change /veh MAGEB2 (11727129_at) / RFU TMEM200A (11744735_a_at) / Fold change /veh TMEM200A (11744735_a_at) / RFU CCDC152 (11751479_a_at) / Fold change /veh CCDC152 (11751479_a_at) / RFU FAM211A (11726209_a_at) / Fold change /veh FAM211A (11726209_a_at) / RFU RGS16 (11746705_a_at) / Fold change /veh RGS16 (11746705_a_at) / RFU VCAN (11755009_s_at) / Fold change /veh VCAN (11755009_s_at) / RFU RHOB (11743442_s_at) / Fold change /veh RHOB (11743442_s_at) / RFU RGS16 (11720943_a_at) / Fold change /veh RGS16 (11720943_a_at) / RFU RGS16 (11720944_at) / Fold change /veh RGS16 (11720944_at) / RFU, VPS4B / Fold change vs veh, VPS4B / RFU, CREB1 / Fold change vs veh, CREB1 / RFU, DNAJC13 / Fold change vs veh, DNAJC13 / RFU, GNAQ / Fold change vs veh, GNAQ / RFU, CDK5R1 / Fold change vs veh, CDK5R1 / RFU, ZRANB3 / Fold change vs veh, ZRANB3 / RFU, CUL4A / Fold change vs veh, CUL4A / RFU, CCNY / Fold change vs veh, CCNY / RFU, UFL1 / Fold change vs veh, UFL1 / RFU, COG3 / Fold change vs veh, COG3 / RFU, DIAPH2 / Fold change vs veh, DIAPH2 / RFU, SKA2 / Fold change vs veh, SKA2 / RFU, AFF3 / Fold change vs veh, AFF3 / RFU, LMF1 / Fold change vs veh, LMF1 / RFU, IPO11 / Fold change vs veh, IPO11 / RFU, DFFB / Fold change vs veh, DFFB / RFU, FOXP1 / Fold change vs veh, FOXP1 / RFU, CARD8 / Fold change vs veh, CARD8 / RFU, STRN3 / Fold change vs veh, STRN3 / RFU, ADK / Fold change vs veh, ADK / RFU, RASSF2 / Fold change vs veh, RASSF2 / RFU, WIPF1 / Fold change vs veh, WIPF1 / RFU, LARP1B / Fold change vs veh, LARP1B / RFU, RASA1 / Fold change vs veh, RASA1 / RFU, RB1 / Fold change vs veh, RB1 / RFU, PPFIA1 / Fold change vs veh, PPFIA1 / RFU, MAT2A / Fold change vs veh, MAT2A / RFU, CCT5 / Fold change vs veh, CCT5 / RFU, WDR92 / Fold change vs veh, WDR92 / RFU, CUX1 / Fold change vs veh, CUX1 / RFU, TTC7A / Fold change vs veh, TTC7A / RFU, TMEM135 / Fold change vs veh, TMEM135 / RFU, DEPTOR / Fold change vs veh, DEPTOR / RFU, CPM / Fold change vs veh, CPM / RFU, DNAJB6 / Fold change vs veh, DNAJB6 / RFU, CACNA2D3 / Fold change vs veh, CACNA2D3 / RFU, DTX4 / Fold change vs veh, DTX4 / RFU, TFCP2 / Fold change vs veh, TFCP2 / RFU, GMCL1 /// GMCL1P1 / Fold change vs veh, GMCL1 /// GMCL1P1 / RFU, AEBP2 / Fold change vs veh, AEBP2 / RFU, SNHG1 /// SNORD22 /// SNORD25 /// SNORD26 /// SNORD27 /// SNORD28 /// SNORD29 /// SNORD31 / Fold change vs veh, SNHG1 /// SNORD22 /// SNORD25 /// SNORD26 /// SNORD27 /// SNORD28 /// SNORD29 /// SNORD31 / Fold change (Aza/veh), C12orf56 (ProbeSet 11735607_a_at) / Fold change (ACY-1035/veh), C12orf56 (ProbeSet 11735607_a_at) / Fold change (Aza/veh), FGFR1OP (ProbeSet 11751329_s_at) / Fold change (ACY-1035/veh), FGFR1OP (ProbeSet 11751329_s_at) / Fold change (Aza/veh), VPS36 (ProbeSet 11739960_a_at) / Fold change (ACY-1035/veh), VPS36 (ProbeSet 11739960_a_at) / RFU SYPL1 (11715823_x_at) / Fold change /veh SYPL1 (11715823_x_at) / RFU IGFBP7 (11715501_s_at) / Fold change /veh IGFBP7 (11715501_s_at) / RFU REEP3 (11722064_at) / Fold change /veh REEP3 (11722064_at) / RFU IGLL1 (11728026_x_at) / Fold change /veh IGLL1 (11728026_x_at): dose or concentration left out as unconfirmed. Particulars: ProbeSet 11717523_x_at; LIST B.

SMILES strings stand for the structures.

For `Nc1ncn([C@@H]2O[C@H](CO)[C@@H](O)[C@H]2O)c(=O)n1` [azacitidine], the “Fold change vs veh, TMEM50B” value is 0.85.
